Reference: US6552010B1 (Genelabs Technologies, Inc., priority 1999, dated 2003)

Key:
[1] = Stability of DHEA polymorph preparations under ambient conditions
[2] = Uptake and absorption of DHEA polymorph preparations upon oral administration
SLE patients [3] = assay: Clinical trial: responders by window analysis of SLEDAI, SLAM, Patient VAS and KFSS; format: in vivo, human; conditions: for Responders (3% window), number of patients / Responders (3% window), percent / Responders (5% window), number of patients / Responders (5% window), percent / Responders (10% window), number of patients / Responders (10% window), percent: 200 mg DHEA per day orally
Protocol: For each of the disease activity variables (SLEDAI and SLAM) and constitutional symptom variables (Patient VAS and KFSS), the value of interest for each patient is determined as the difference between a pretreatment baseline value, calculated as the mean of two baseline values, taken prior to any treatment with DHEA), and values taken during treatment, calculated as the mean of all values obtained during on-treatment scheduled visits, e.g., 13, 26, 39, and 52 weeks of treatment.
For each of the variables, an improvement in the variable is defined as either (i) no change in the variable or (ii) a decrease in the variable. Thus, for example, an improvement in a baseline SLEDAI score of 5.00 would be any value 5.00 or less. A change in a variable that represents a worsening of the state or condition is any increase in the measured value.
Thus, for a baseline SLEDAI value of 5.0, and a 3% cap, the maximum allowed increase in SLEDAI value, for classification as a 3% responder is 0.15
The mean baseline scores represent the mean of two value determinations made prior to treatment.
Each group, in turn, can be broken down into three subgroups: (I) total patient population (II) all patients with SLEDAI values greater than 2, and (III) patients having SLEDAI values greater than 2 and currently being treated with prednisone (at dose greater than 2 mg/prednisone /day), where the number of patients in each subgroup is indicated by N in the Table 5.
Treatment was with 200 mg DHEA per day, administered orally in capsule form, or with a non-drug capsule (placebo). Mean duration of the treatment for each group was somewhat higher for the placebo group (308 days for placebo vs 288.4 days for DHEA, but median durations were almost the identical (362 vs. 359 days, respectively.).
The three columns in the table represent total of the three subgroups for both the placebo and treatment group. The three rows represent responders in which an improvement (no change or decrease in value) in three the three of the four variables was observed and an increase in the fourth variable of no more than 3% (first row), 5% (second row), and 10% (third row) of the pretreatment baseline value.

SLE patients [4] = assay: Clinical trial: percent responders (weighted average change from baseline, no clinical deterioration); format: in vivo, human; conditions: 200 mg DHEA per day orally
Protocol: (§1) Clinical trial results were analyzed for each group (placebo and DHEA-treated) as a whole (“per-protocol”), as well as broken down into three subgroups: all patients with SLEDAI values greater than 2 (“active SLE”), and patients having SLEDAI values greater than 2 and receiving corticosteroids and/or immunosuppressives (“more severe SLE”).
(§2) Patients received 200 mg DHEA per day, administered orally in capsule form, or with a non-drug capsule (placebo). Mean duration of the treatment for each group was somewhat higher for the placebo group (308.4 days for placebo vs 288.4 days for DHEA, but median durations were almost the identical (362 vs. 359 days, respectively.).
The last three columns of the table show the results of the study for patients experiencing at least one flare during the study.

SLE patients [5] = assay: Clinical trial: effect of DHEA treatment on SLE flares; format: in vivo, human; conditions: for Patients with at least one flare, patients/total / Patients with at least one flare, percent: 200 mg DHEA per day orally
Protocol: A clinical trial was conducted to determine the effect of DHEA treatment on SLE flares. An SLE flare is a significant new clinical manifestation of the disease (i.e., one that was not previously present in the patient or not previously as severe) and/or a clinical intervention. Table 6 identifies the clinical findings or interventions that were scored as flares in the present study. Any patient having at least one of these finding or interventions was scored as having a flare.
as §1, §2
At about 200 days of treatment, incidence of flare is at least about 5% lower in the treated patients, and from this point on, the difference in flare incidence between the treated and placebo patients grows to at least about 10%.

[6] = Group II: All patients with SLEDAI > 2
[7] = Group II: All patients with SLEDAI > 2, N = 132
[8] = Group III: All patients with SLEDAI > 2, Pred > 0
[9] = Group III: All patients with SLEDAI > 2, Pred > 0, N = 73
[10] = Active SLE (SLEDAI > 2 at baseline)
[11] = More Severe SLE (SLEDAI > 2 and receiving corticosteroids and/or immunosuppressives at baseline)

## C[C@]12CC[C@H](O)CC1=CC[C@@H]1[C@@H]2CC[C@]2(C)C(=O)CC[C@@H]12 [DHEA form I, dehydroepiandrosterone]
[1]
  Stability: highly stable under ambient conditions
[2]
  Uptake by the GI tract: good uptake by the GI tract

## C[C@]12CC[C@H](O)CC1=CC[C@@H]1[C@@H]2CC[C@]2(C)C(=O)CC[C@@H]12 [DHEA, dehydroepiandrosterone]
SLE patients [3]; Group I: All patients
  Improvement over placebo, responders (3% window): 39.8%
  Improvement over placebo, responders (5% window): 32.1%
  Improvement over placebo, responders (10% window): 38.0%
SLE patients [3]; Group I: All patients, N = 170
  Responders (3% window), number of patients: 77
  Responders (3% window), percent: 45.3%
  Responders (5% window), number of patients: 79
  Responders (5% window), percent: 46.5%
  Responders (10% window), number of patients: 92
  Responders (10% window), percent: 54.1%
SLE patients [3]; [6]
  Improvement over placebo, responders (3% window): 54.4%
  Improvement over placebo, responders (5% window): 47.1%
  Improvement over placebo, responders (10% window): 51.1%
SLE patients [3]; [7]
  Responders (3% window), number of patients: 72
  Responders (3% window), percent: 54.5%
  Responders (5% window), number of patients: 73
  Responders (5% window), percent: 55.3%
  Responders (10% window), number of patients: 84
  Responders (10% window), percent: 63.6%
SLE patients [3]; [8]
  Improvement over placebo, responders (3% window): 64.3%
  Improvement over placebo, responders (5% window): 68.6%
  Improvement over placebo, responders (10% window): 82.2%
SLE patients [3]; [9]
  Responders (3% window), number of patients: 39
  Responders (3% window), percent: 53.4%
  Responders (5% window), number of patients: 40
  Responders (5% window), percent: 54.8%
  Responders (10% window), number of patients: 45
  Responders (10% window), percent: 61.6%
SLE patients [4]; [10]
  Responders, patients/total: (87/132)
  Responders, percent: 66%
SLE patients [4]; [11]
  Responders, patients/total: (51/80)
  Responders, percent: 64%
SLE patients [4]; Per Protocol population
  Responders, patients/total: (99/170)
  Responders, percent: 58%
SLE patients [5]; [10]
  Patients with at least one flare, patients/total: (31/132)
  Patients with at least one flare, percent: 24%
SLE patients [5]; FIG. 1, active SLE patients, compared to the placebo group
  Time of treatment at which reduction of the risk of flare begins: about 85 days
SLE patients [5]; FIG. 1, at about 200 days of treatment
  Incidence of flare lower in treated patients than placebo: at least 5%
SLE patients [5]; FIG. 1, grows to this after about 200 days of treatment
  Difference in flare incidence between treated and placebo patients: at least 10%
SLE patients [5]; [11]
  Patients with at least one flare, patients/total: (21/80)
  Patients with at least one flare, percent: 26%
SLE patients [5]; Per Protocol population
  Patients with at least one flare, patients/total: (37/170)
  Patients with at least one flare, percent: 22%
SLE patients [5]; Table 8 study, effect increased with severity of disease
  Effect on occurrence of flares: reduced the occurrence of flares

## C[C@]12CC[C@H](O)CC1=CC[C@@H]1[C@@H]2CC[C@]2(C)C(=O)CC[C@@H]12 [DHEA form II, dehydroepiandrosterone]
[1]
  Stability: stable under ambient conditions
[2]
  Rate of absorption: rapid rate of absorption (greater than the form I polymorph)
  Uptake by the GI tract: good uptake by the GI tract
